Remaining binding data for 3 molecules are collected here from patent US11208412B2 (DAEGU-GYEONGBUK MEDICAL INNOVATION FOUNDATION, priority 2017, dated 2021).

Holding throughout (assay): Kinase selectivity, DiscoverX scanMAX Kinase assay panel (% control)
Holding throughout (type): binding

For test [1], the target named is T1, kinases of the scanMAX Kinase assay panel (Homo sapiens, UniProt O96013).
T1 construct: purchased DiscoverX Co. (contract measurement) scanMAX Kinase assay panel
Conditions: PAK4; 1 uM. The gist of the method:
(§1)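 Each enzyme is treated with drug at 1 uM in DMSO, then signal is scaled between a positive control (0%) and DMSO (100%) to give % control. Kinases with % control under 35% are scored as inhibited.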

Test [2] has as its target T2, kinases of the scanMAX Kinase assay panel (Homo sapiens, UniProt Q9H093).
T2 construct: purchased DiscoverX Co. (contract measurement) scanMAX Kinase assay panel
T2 sequence (Q9H093 1-628): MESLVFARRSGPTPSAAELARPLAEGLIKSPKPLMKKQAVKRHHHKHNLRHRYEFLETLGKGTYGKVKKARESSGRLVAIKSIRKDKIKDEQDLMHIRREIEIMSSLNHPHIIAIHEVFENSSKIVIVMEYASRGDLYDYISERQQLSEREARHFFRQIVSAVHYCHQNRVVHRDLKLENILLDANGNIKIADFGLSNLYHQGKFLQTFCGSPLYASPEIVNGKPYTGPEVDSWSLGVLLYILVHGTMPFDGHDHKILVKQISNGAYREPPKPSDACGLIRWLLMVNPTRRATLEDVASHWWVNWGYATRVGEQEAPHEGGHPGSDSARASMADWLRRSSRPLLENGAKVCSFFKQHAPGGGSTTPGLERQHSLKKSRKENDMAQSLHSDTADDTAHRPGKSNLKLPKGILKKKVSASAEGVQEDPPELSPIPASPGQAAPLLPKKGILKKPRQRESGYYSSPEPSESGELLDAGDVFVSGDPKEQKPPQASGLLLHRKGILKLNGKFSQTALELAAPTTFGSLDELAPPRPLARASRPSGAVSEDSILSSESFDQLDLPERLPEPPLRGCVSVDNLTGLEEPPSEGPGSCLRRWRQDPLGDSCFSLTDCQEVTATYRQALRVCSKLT
Conditions: kinase SNARK; 1 uM in DMSO. The gist of the method: as §1

For test [3], the target named is T3, kinases of the scanMAX Kinase assay panel (Homo sapiens, UniProt P35968).
T3 construct: purchased DiscoverX Co. (contract measurement) scanMAX Kinase assay panel
T3 sequence (P35968 20-1356): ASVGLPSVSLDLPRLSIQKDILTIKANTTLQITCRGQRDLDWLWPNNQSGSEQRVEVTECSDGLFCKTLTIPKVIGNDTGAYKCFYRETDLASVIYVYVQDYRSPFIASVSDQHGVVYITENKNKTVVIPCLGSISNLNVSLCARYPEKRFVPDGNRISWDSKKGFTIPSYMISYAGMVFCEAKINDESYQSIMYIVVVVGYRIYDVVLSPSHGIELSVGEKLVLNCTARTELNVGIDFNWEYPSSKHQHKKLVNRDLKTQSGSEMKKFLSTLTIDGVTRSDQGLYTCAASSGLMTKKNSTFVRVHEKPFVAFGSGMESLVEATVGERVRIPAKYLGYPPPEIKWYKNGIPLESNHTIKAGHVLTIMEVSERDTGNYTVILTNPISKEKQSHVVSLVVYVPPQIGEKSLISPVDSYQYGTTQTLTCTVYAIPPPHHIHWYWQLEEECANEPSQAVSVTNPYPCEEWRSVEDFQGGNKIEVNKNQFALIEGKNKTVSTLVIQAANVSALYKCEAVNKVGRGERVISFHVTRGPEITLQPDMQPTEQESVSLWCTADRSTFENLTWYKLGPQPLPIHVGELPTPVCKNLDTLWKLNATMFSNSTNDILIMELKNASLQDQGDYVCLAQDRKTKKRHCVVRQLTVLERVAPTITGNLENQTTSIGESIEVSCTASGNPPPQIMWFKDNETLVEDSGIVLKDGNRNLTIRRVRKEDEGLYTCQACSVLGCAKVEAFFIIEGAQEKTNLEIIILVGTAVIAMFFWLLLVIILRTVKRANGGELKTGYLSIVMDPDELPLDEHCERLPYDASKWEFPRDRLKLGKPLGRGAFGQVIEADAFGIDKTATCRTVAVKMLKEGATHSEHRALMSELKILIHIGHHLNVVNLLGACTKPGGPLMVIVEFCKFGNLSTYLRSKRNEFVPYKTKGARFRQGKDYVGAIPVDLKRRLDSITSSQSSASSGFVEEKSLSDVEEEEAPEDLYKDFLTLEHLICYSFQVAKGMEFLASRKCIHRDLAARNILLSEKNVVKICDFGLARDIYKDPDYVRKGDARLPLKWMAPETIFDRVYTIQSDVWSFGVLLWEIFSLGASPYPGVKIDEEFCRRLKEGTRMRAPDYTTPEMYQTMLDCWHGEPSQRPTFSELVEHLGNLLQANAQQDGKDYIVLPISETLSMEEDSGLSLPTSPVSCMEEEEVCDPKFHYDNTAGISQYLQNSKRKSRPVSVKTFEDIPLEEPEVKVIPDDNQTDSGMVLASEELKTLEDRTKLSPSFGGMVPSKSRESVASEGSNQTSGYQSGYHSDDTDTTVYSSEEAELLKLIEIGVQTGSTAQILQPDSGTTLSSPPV
As to conditions: kinase VEGFR2; 1 uM in DMSO. In a few lines:
as §1

In test [4] the target is T4, kinases of the scanMAX Kinase assay panel (Homo sapiens, UniProt Q9UQ88).
T4 construct: purchased DiscoverX Co. (contract measurement) scanMAX Kinase assay panel
T4 sequence (Q9UQ88 1-783): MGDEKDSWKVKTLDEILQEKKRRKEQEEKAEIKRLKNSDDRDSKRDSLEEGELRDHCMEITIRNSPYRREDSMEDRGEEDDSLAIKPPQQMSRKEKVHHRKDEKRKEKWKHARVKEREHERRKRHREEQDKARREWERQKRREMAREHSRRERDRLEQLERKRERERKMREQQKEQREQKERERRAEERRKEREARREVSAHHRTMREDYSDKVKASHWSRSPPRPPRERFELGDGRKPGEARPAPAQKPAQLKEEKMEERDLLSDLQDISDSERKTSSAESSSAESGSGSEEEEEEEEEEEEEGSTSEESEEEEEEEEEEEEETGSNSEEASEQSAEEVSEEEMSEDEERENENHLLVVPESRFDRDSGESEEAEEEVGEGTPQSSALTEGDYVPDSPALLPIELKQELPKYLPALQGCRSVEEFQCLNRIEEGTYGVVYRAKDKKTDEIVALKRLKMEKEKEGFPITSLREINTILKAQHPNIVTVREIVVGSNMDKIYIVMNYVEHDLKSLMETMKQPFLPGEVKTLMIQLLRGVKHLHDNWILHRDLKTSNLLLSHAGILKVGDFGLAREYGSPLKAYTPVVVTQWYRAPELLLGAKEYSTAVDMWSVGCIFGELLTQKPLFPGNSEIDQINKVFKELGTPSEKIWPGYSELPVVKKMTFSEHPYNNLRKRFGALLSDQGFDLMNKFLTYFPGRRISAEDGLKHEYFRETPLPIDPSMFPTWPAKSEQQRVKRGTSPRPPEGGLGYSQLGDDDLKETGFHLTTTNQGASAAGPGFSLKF
As to conditions: CDC2L2; 1 uM. In a few lines: as §1

Test [5] addresses T5, kinases of the scanMAX Kinase assay panel (Homo sapiens, UniProt Q9H0K1).
T5 construct: purchased DiscoverX Co. (contract measurement) scanMAX Kinase assay panel
As to conditions: kinase SIK2; 1 uM in DMSO. In a few lines:
as §1

The target of test [6] is T6, kinases of the scanMAX Kinase assay panel (Homo sapiens, UniProt Q9UPE1).
T6 construct: purchased DiscoverX Co. (contract measurement) scanMAX Kinase assay panel
T6 sequence (Q9UPE1 whole entry): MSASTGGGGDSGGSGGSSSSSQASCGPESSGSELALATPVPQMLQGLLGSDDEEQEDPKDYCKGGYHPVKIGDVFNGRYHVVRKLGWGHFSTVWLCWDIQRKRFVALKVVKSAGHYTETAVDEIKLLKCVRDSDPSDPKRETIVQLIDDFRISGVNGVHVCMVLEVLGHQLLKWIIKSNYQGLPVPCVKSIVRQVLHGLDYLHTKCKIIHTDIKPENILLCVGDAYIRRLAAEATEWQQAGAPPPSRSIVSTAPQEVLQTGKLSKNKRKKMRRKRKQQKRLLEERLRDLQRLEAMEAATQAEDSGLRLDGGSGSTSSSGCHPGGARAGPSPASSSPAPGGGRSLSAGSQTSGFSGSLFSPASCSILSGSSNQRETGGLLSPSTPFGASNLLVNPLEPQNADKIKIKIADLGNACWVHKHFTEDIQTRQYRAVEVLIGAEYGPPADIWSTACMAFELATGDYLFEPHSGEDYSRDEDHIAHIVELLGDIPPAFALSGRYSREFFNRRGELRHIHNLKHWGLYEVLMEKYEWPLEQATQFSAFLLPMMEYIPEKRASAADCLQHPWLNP
As to conditions: kinase SRPK3; 1 uM in DMSO. The gist of the method:
as §1

The target in test [7] is T7, kinases of the scanMAX Kinase assay panel (Homo sapiens, UniProt Q9C098).
T7 construct: purchased DiscoverX Co. (contract measurement) scanMAX Kinase assay panel
T7 sequence (Q9C098 whole entry): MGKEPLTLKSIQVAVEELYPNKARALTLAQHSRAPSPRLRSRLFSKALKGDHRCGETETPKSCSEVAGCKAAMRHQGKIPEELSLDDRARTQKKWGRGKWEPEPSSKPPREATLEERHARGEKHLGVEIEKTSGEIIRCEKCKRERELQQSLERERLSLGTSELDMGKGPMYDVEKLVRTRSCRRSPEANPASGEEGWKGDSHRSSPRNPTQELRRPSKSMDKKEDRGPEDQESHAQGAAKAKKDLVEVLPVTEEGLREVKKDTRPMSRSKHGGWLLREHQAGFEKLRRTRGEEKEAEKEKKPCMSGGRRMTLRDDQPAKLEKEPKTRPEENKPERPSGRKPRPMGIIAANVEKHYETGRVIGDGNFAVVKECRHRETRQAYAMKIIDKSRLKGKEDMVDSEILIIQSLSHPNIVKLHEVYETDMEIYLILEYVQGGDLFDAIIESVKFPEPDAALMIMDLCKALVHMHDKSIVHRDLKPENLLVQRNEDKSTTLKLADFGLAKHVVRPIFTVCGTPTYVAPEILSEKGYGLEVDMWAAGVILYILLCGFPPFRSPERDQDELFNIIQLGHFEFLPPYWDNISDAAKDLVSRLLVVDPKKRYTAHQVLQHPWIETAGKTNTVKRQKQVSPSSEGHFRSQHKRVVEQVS
Conditions: DCAMKL3; 1 uM. The gist of the method:
as §1

The target of test [8] is T8, kinases of the scanMAX Kinase assay panel (Homo sapiens, UniProt O94804).
T8 construct: purchased DiscoverX Co. (contract measurement) scanMAX Kinase assay panel
T8 sequence (O94804 whole entry): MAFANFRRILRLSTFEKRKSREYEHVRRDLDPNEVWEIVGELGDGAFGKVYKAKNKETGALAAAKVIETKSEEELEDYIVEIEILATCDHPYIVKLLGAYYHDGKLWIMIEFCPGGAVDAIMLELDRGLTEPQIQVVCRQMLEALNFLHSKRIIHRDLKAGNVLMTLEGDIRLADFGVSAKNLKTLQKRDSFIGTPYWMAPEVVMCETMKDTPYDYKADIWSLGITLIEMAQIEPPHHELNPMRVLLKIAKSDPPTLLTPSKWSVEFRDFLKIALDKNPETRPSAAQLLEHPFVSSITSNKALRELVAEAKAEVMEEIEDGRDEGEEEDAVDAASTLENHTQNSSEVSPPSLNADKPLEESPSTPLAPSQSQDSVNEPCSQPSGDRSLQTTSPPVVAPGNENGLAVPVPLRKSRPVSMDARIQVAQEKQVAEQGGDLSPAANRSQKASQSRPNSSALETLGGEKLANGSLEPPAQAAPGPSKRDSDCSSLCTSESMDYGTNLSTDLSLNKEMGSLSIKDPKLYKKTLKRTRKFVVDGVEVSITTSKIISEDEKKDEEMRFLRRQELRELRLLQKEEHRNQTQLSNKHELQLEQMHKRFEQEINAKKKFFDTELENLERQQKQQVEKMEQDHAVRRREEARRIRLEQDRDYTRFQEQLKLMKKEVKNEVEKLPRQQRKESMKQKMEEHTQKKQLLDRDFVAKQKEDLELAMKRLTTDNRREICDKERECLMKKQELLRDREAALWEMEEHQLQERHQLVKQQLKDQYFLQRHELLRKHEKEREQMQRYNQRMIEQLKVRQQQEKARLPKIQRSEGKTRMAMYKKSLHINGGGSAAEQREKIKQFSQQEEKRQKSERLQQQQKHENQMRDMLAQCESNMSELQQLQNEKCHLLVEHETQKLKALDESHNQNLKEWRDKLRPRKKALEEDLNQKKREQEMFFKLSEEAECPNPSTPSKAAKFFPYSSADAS
Conditions: LOK; 1 uM. The gist of the method: as §1

T5 sequence (Q9H0K1 whole entry): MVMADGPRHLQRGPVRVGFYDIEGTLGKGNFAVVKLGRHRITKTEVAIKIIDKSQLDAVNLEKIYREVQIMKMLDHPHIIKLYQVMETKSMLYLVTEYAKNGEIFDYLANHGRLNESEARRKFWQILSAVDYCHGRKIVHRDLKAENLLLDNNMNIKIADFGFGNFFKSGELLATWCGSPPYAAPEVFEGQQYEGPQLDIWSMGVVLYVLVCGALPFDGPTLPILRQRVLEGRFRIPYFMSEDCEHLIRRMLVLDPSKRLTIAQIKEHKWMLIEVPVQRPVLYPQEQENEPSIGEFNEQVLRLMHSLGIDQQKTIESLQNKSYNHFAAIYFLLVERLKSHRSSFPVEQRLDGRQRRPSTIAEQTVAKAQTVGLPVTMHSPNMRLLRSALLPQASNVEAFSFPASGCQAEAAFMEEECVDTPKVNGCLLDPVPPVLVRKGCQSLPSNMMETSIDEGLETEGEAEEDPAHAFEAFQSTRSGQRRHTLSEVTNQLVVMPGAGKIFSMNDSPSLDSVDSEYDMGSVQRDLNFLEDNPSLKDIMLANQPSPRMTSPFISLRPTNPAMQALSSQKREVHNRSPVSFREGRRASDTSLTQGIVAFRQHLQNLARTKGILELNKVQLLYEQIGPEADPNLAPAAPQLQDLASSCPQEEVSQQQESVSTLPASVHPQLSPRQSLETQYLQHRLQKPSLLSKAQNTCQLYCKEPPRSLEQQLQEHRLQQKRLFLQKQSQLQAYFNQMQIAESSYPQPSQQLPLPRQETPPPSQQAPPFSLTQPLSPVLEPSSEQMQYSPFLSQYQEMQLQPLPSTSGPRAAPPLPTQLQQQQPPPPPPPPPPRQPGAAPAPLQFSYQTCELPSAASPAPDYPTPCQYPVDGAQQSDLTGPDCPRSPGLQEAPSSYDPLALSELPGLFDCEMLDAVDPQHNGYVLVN
T1 sequence (O96013 whole entry): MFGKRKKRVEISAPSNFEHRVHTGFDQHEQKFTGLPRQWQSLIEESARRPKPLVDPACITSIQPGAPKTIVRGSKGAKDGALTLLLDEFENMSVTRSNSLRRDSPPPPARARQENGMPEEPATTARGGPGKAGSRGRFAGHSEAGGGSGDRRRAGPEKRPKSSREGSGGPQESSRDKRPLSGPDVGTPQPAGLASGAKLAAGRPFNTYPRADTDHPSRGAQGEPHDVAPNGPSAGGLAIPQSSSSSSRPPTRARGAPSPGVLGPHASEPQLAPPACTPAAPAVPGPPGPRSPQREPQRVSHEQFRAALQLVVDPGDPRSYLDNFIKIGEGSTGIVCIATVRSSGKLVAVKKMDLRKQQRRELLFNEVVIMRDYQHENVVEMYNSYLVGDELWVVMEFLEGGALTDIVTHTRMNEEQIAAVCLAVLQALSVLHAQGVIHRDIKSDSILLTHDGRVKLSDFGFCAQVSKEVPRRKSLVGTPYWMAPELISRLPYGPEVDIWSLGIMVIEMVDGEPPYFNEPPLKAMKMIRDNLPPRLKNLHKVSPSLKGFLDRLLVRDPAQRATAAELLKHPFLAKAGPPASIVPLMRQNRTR

On to `CC1(Nc2nc(Nc3cnn([C@H]4CCN(C5COC5)C[C@@H]4F)c3Cl)nc3[nH]cc(C#N)c23)CC1` [Example 52, 2-((5-chloro-1-((3S,4S)-3-fluoro-1-(oxetane-3-yl)piperidine-4-yl)-1H-pyrazole-4-yl)amino)((1-methylcyclopropyl)amino)-7H-pyrrolo[2,3-d]pyrimidine-5-carbonitrile], for which the remaining binding at 1 µM in test [1] is 3.4%; in test [2] it was 0.95%; in test [3], 3.7%; in test [4] it was 100%; in test [5], 33%; in test [6] it was 2.5%. Moreover, the remaining binding at 1 µM in test [7] amounted to 91%; in test [8] it was 74%.
Take `CCNc1nc(Nc2ccc(C(=O)N3CCC(N4CCOCC4)CC3)cc2OC)nc2[nH]cc(C(F)(F)F)c12` [Example 104, (4-((4-(ethylamino)-5-(trifluoromethyl)-7H-pyrrolo[2,3-d]pyrimidine-2-yl)amino)-3-methoxyphenyl)(4-morpholinopiperidine-1-yl)methanone]: the remaining binding at 1 µM is 100% in test [1]; 91% in test [2]; 73% in test [3]; 98% in test [4]; 100% in test [5]; 100% in test [6]. Moreover, the figures for the remaining binding at 1 µM in test [7] and in test [8] were 90% and 100%, respectively.
With `CNc1nc(Nc2ccc(C(=O)N3CCOCC3)cc2OC)nc2[nH]cc(C#N)c12` [Example 1, 2-((2-methoxy-4-(morpholine-4-carbonyl)phenyl)amino)-4-(methylamino)-7H-pyrrolo[2,3-d]pyrimidine-5-carbonitrile], the remaining binding at 1 µM in test [1] was found to be 79%; in test [2], 77%; in test [3], 63%; in test [4], 91%; in test [5], 100%; in test [6] it was 93%. The remaining binding at 1 µM in test [7] amounted to 98%; in test [8], 95%.
